This note sets out measurements from US10940139B2, “Compounds that interact with the Ras superfamily for the treatment of cancers, inflammatory diseases, rasopathies, and fibrotic disease” (Shy Therapeutics LLC, priority 2017, dated 2021).

The structures appear in SMILES notation.

For one experiment, the target named is KRas G12D mutant protein (Homo sapiens (Human), UniProt P01116, G12D). In words: Ras GTP binding domain inhibition assay (labeled GTP). The note with it: at 20 μM; read-out: KRas G12D % Inh. The procedure: The following method was developed as specific assay for KRas G12D mutant protein.
KRas G12D mutant protein, sequence (P01116-2 other isoform, or with tags, fused parts or gaps G12D): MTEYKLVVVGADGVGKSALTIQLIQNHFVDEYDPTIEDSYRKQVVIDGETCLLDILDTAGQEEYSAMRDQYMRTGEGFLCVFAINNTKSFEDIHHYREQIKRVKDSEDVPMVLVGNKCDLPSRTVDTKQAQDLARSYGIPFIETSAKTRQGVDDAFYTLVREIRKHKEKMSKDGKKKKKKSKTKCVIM
Buffer-I: • 50 mM Tris, pH 7.5 • 150 mM NaCl (optional) • 1 mM MgCl2 • 1 mM DTT. • KRas G12D mutant protein was expressed as a His-tagged protein. Purified His-KRas G12D protein was diluted in buffer-I to a final concentration of 3-10 μg/ml. • 200 μl of the diluted His-KRas G12D protein was added to a nickel coated 96 well plate and incubated overnight at 4° C. • The next day, wells were washed 3× in 200 μl of Buffer-I. • Then 200 μl of Buffer-I were added to each well in the presence of 1% DMSO. • Tested compounds were added to the protein-coated wells at a concentration of 20 μM, and incubated for 3 hours at room temperature. While performing IC50 measurements a serial dilution of all tested concentrations was prepared.
Then 22 μl of Cy3-GTP or Cy5-GTP was added to each well. The labeled GTP was incubated for 45 min. at room temperature. • Following GTP incubation, wells were washed 3× in Buffer-I, and 200 μl of Buffer-I were added to each well. • Following washes, the amount of bound labeled-GTP was measured with an Eppendorf AF2200 plate reader.

Another experiment addresses Rac-1 (Homo sapiens (Human), UniProt P63000). In words: Rac inhibition assay (labeled GTP). The experiment is classed as binding. The note with it: read-out: Rac-1 % Inh.
In a further experiment the target is Rho-A (Homo sapiens (Human), UniProt P61586). In words: Rho inhibition assay (labeled GTP). Type of experiment: binding. Conditions: read-out: Rho-A % Inh.
Rho-A, sequence (P61586 whole entry): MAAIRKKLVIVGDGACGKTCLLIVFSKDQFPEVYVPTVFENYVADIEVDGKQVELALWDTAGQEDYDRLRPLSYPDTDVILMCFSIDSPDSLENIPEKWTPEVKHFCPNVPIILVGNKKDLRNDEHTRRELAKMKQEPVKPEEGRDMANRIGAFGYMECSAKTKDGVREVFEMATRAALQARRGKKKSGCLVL

With `CCOCCNc1nc(-c2nccn2C)nc2sc(-c3ccccc3)c(-c3ccccc3)c12` [drawing 3893], the inhibition at 20 µM on KRas G12D mutant protein, at Rac-1 and on Rho-A was 51 to 75% each time.

Turning to `CC(CO)Nc1nc(-c2nccn2C)nc2sc(-c3ccccc3)c(-c3ccccc3)c12` (stereo not drawn) [drawing 3896], the inhibition at 20 µM at KRas G12D mutant protein, at Rac-1 and at Rho-A was 1 to 25% each time.

`COc1ccc(-c2c(-c3ccccc3)sc3c(O)nc(-c4nccn4C)nc23)cn1` [drawing 3911]: the inhibition at 20 µM at KRas G12D mutant protein, at Rac-1 and on Rho-A was 1 to 25% throughout.

In the case of `Cn1ccnc1-c1nc(NCCOC(F)(F)F)c2c(-c3ccccc3)c(-c3ccccc3)sc2n1` [drawing 3886], the inhibition at 20 µM on KRas G12D mutant protein, on Rac-1 and at Rho-A was 25 to 50% each time.

Regarding `Cn1ccnc1-c1nc(O)c2scc(-c3ccc(F)cc3F)c2n1` [drawing 3934], the results for the inhibition at 20 µM at KRas G12D mutant protein, on Rac-1 and at Rho-A were 25 to 50%, 51 to 75% and 25 to 50%, respectively.

Take `CC(C)COc1ccc(-c2csc3c(O)nc(-c4cn(C)cn4)nc23)cn1` [drawing 3923]: the inhibition at 20 µM at KRas G12D mutant protein lay within 1 to 25%; on Rac-1, 25 to 50%; at Rho-A it was 25 to 50%.

Take `CCN(CC)CCOc1nc(-c2nccn2C)nc2sc(-c3ccccc3)c(-c3ccccc3)c12` [drawing 3891]: the values for the inhibition at 20 µM at KRas G12D mutant protein, on Rac-1 and at Rho-A were 25 to 50%, 1 to 25% and 1 to 25%, respectively.

Consider `CC(O)CNc1nc(-c2nccn2C)nc2sc(-c3ccccc3)c(-c3ccccc3)c12` (stereo not drawn) [drawing 3887], for which the inhibition at 20 µM lay within 1 to 25% at KRas G12D mutant protein, 25 to 50% on Rac-1 and 25 to 50% on Rho-A.

Regarding `CC(C)COc1ccc(-c2csc3c(O)nc(-c4nccn4C)nc23)cn1` [drawing 3930], the inhibition at 20 µM at KRas G12D mutant protein was 76 to 100%; on Rac-1, 51 to 75%; on Rho-A, 51 to 75%.

With `COc1ccc(-c2c(C)sc3c(O)nc(-c4nccn4C)nc23)cn1` [drawing 3919], the inhibition at 20 µM at KRas G12D mutant protein was 1 to 25%; on Rac-1, 1 to 25%; on Rho-A it was 0%.

Consider `Cc1sc2c(O)nc(-c3nccn3C)nc2c1-c1ccc(OC(C)C)c(F)c1` [drawing 3928], for which the inhibition at 20 µM was in the range of 51 to 75% on KRas G12D mutant protein, 51 to 75% on Rac-1 and 25 to 50% at Rho-A.

Turning to `COCCNc1nc(-c2nccn2C)nc2sc(-c3ccccc3)c(-c3ccccn3)c12` [drawing 3940], the inhibition at 20 µM was in the range of 25 to 50% at KRas G12D mutant protein, 25 to 50% on Rac-1 and 51 to 75% on Rho-A.

In the case of `COCCNc1nc(-c2nccn2C)nc2sc(-c3ccccc3)c(-c3ccncc3)c12` [drawing 3914], the inhibition at 20 µM on KRas G12D mutant protein lay in the range of 51 to 75%; on Rac-1 it was 76 to 100%; at Rho-A it was 76 to 100%.

On to `COCCNc1nc(-c2cn(C)cn2)nc2sc(-c3ccccc3)c(-c3ccccc3)c12` [drawing 3901], for which the figures for the inhibition at 20 µM at KRas G12D mutant protein, at Rac-1 and on Rho-A were 25 to 50%, 51 to 75% and 51 to 75%, respectively.

In the case of `CC(C)Oc1ccc(-c2c(-c3ccccc3)sc3c(O)nc(-c4nccn4C)nc23)cc1F` [drawing 3929], the inhibition at 20 µM was 25 to 50% at KRas G12D mutant protein, 51 to 75% at Rac-1 and 25 to 50% on Rho-A.

On to `COC1CCN(c2nc(-c3nccn3C)nc3sc(-c4ccccc4)c(-c4ccccc4)c23)C1` (stereo not drawn) [drawing 3889], for which the inhibition at 20 µM is 51 to 75% at KRas G12D mutant protein, 25 to 50% at Rac-1 and 0% at Rho-A.

`COCC(C)Nc1nc(-c2nccn2C)nc2sc(-c3ccccc3)c(-c3ccccc3)c12` (stereo not drawn) [drawing 3895]: the inhibition at 20 µM at KRas G12D mutant protein, on Rac-1 and on Rho-A was 1 to 25% throughout.
